The record followed here is patent publication US8927715B2, “Inhibitors of 11β-hydroxysteroid dehydrogenase type 1” (Vitae Pharmaceuticals, Inc., priority 2006, dated 2015).

This assay addresses human 11β-HSD1 (Homo sapiens, UniProt P28845). In words: Inhibition of a microsomal preparation of 11β-HSD1, SPA (Biological Test Example 2). Type of assay: biochemical. On the set-up: expressed in transfected cells; host or cells: CHO cells (microsomes). The settings on record: read-out: Biological Test Example 2 (IC50 class). Here is the method:
All reactions are carried out at room temperature in 96 well clear flexible PET Microbeta plates (PerkinElmer). […] After a 10 minute pre-incubation, 50 μL of enzyme solution containing microsomes isolated from CHO cells overexpressing human 11β-HSD1 (10-20 μg/ml of total protein) is added, and the plates are then incubated for 90 minutes at room temperature. The reaction is stopped by adding 50 μl of the SPA beads suspension containing […] 18β-glycyrrhetinic acid, 5 mg/ml protein A coated YSi SPA beads (GE Healthcare) and 3.3 μg/ml of anti-cortisol antibody (East Coast Biologics) in Superblock buffer (Bio-Rad). The plates are then shaken for 120 minutes at room temperature, and the SPA signal corresponding to [^3H]cortisol is measured on a Microbeta plate reader.

A value given as a limit tells only on which side of the number the result lay.

Sequence of human 11β-HSD1 (P28845 whole entry): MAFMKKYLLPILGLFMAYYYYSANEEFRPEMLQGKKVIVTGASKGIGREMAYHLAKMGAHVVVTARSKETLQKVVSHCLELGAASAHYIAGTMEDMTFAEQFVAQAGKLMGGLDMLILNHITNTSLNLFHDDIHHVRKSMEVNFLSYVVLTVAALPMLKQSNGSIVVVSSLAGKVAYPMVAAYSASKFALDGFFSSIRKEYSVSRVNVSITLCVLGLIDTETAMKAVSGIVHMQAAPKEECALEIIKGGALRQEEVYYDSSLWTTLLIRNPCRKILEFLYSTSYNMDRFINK

Usually IC50 stands for the concentration that gives 50% inhibition. For the compound `O=C(NC1C2CC3CC(C2)CC1C3)N1CCC2(CC1)CC(CCO)c1cccc(Br)c12` (racemic) [Example 122, (±)-7-Bromo-N-(2-adamantyl)-3-(2-hydroxyethyl)-2,3-dihydrospiro[indene-1,4′-piperidine]-1′-carboxamide], the concentration for half-maximal inhibition (IC50) was below 0.05 µM. `CC(C)(CO)C1CC2(CCN(C(=O)NC3C4CC5CC(C4)CC3C5)CC2)c2c(Br)cccc21` (racemic) [Example 123, (±)-7-Bromo-N-(2-adamantyl)-3-(1-hydroxy-2-methylpropan-2-yl)-2,3-dihydrospiro[indene-1,4′-piperidine]-1′-carboxamide]: the IC50 is below 0.05 µM.

Turning to `NCC1CC2(CCN(C(=O)OC3C4CC5CC(C4)CC3C5)CC2)c2c(Br)cccc21` (racemic) [Example 124, (±)-2-Adamantyl 3-(aminomethyl)-7-bromo-2,3-dihydrospiro[indene-1,4′-piperidine]-1′-carboxylate], the IC50 was below 0.05 µM. To `CN(C)CC1CC2(CCN(C(=O)OC3C4CC5CC(C4)CC3C5)CC2)c2c(Br)cccc21` (racemic) [Example 125, (±)-2-Adamantyl 7-bromo-3-((dimethylamino)methyl)-2,3-dihydro spiro[indene-1,4′-piperidine]-1′-carboxylate] belongs below 0.05 µM; to `O=C(NC1C2CC3CC(C2)CC1C3)N1CCC2(CC1)CC(CCN1CCOCC1)c1cccc(Br)c12` (racemic) [Example 126, (±)-7-Bromo-N-(2-adamantyl)-3-(2-morpholinoethyl)-2,3-dihydrospiro[indene-1,4′-piperidine]-1′-carboxamide], below 0.05 µM; to `NC(=O)CC1CC2(CCN(C(=O)NC3C4CC5CC(C4)CC3C5)CC2)c2c(Br)cccc21` (racemic) [Example 131, (±)-3-(2-amino-2-oxoethyl)-7-bromo-N-(2-adamantyl)-2,3-dihydrospiro[indene-1,4′-piperidine]-1′-carboxamide], below 0.05 µM. Then `O=C(NC1C2CC3CC(C2)CC1C3)N1CCCC2(Cc3ccccc3C2=O)C1` (stereo not drawn) [27, Step 1 Product], with below 0.05 µM; and `O=C(NC1C2CC3CC(C2)CC1C3)N1CCCC2(Cc3ccccc3C2O)C1` (stereo not drawn) [27, Step 2 Product], with below 0.05 µM. To `O=C(NC1C2CC3CC(C2)CC1C3)N1CCC2(CC1)NC(=S)c1ccccc12` (stereo not drawn) [87, Step 1 Product] belongs below 0.05 µM.

For `CN1C(=S)c2ccccc2C12CCN(C(=O)NC1C3CC4CC(C3)CC1C4)CC2` (stereo not drawn) [103, Step 1 Product], the 50% inhibitory concentration (IC50) is below 0.05 µM.

Consider `O=C(NC1C2CC3CC(C2)CC1C3)N1CCC2(CCc3ccccc32)CC1` (stereo not drawn) [Example 28, N-(2-Adamantyl)-2,3-dihydrospiro[indene-1,4′-piperidine]-1′-carboxamide], for which the half-maximal inhibitory concentration (IC50) is below 0.05 µM.

As for `CCOC(=O)CCN1Cc2ccccc2C2(CCN(C(=O)OC3C4CC5CC(C4)CC3C5)CC2)C1` (stereo not drawn) [Example 32], the IC50 was below 0.05 µM. Then `CS(=O)(=O)N1Cc2ccccc2C2(CCN(C(=O)NC3C4CC5CC(C4)CC3C5)CC2)C1` (stereo not drawn) [Example 34, N-(2-Adamantyl)-2-(methylsulfonyl)-2,3-dihydro-1H-spiro[isoquinoline-4,4′-piperidine]-1′-carboxamide], with below 0.05 µM; and `CNC(=O)N1Cc2ccccc2C2(CCN(C(=O)NC3C4CC5CC(C4)CC3C5)CC2)C1` (stereo not drawn) [Example 35, N1′-(2-Adamantyl)-N2-methyl-1H-spiro[isoquinoline-4,4′-piperidine]-1′,2(3H)-dicarboxamide], with below 0.05 µM.

Take `CCOC(=O)N1Cc2ccccc2C2(CCN(C(=O)NC3C4CC5CC(C4)CC3C5)CC2)C1` (stereo not drawn) [Example 36, Ethyl 1′-((2-adamantyl)carbamoyl)-1H-spiro[isoquinoline-4,4′-piperidine]-2(3H)-carboxylate]: the IC50 is below 0.05 µM. To `CC(C)(C)OC(=O)N1Cc2ccccc2C2(CCN(C(=O)OC3C4CC5CC(C4)CC3C5)CC2)C1` (stereo not drawn) [Example 37, 2-Tert-butyl 1′-(2-adamantyl) 1H-spiro[isoquinoline-4,4′-piperidine]-1′,2(3H)-dicarboxylate] belongs below 0.05 µM; to `O=C(OC1C2CC3CC(C2)CC1C3)N1CCC2(CC1)CNCc1ccccc12` (stereo not drawn) [Example 38, 2-Adamantyl 2,3-dihydro-1H-spiro[isoquinoline-4,4′-piperidine]-1′-carboxylate], below 0.05 µM; to `CS(=O)(=O)N1Cc2ccccc2C2(CCN(C(=O)OC3C4CC5CC(C4)CC3C5)CC2)C1` (stereo not drawn) [Example 39, 2-Adamantyl 2-(methylsulfonyl)-2,3-dihydro-1H-spiro[isoquinoline-4,4′-piperidine]-1′-carboxylate], below 0.05 µM. To `CC(C)S(=O)(=O)N1Cc2ccccc2C2(CCN(C(=O)OC3C4CC5CC(C4)CC3C5)CC2)C1` (stereo not drawn) [Example 40, 2-Adamantyl 2-(isopropylsulfonyl)-2,3-dihydro-1H-spiro[isoquinoline-4,4′-piperidine]-1′-carboxylate] belongs below 0.05 µM; to `N#Cc1ccc(N2Cc3ccccc3C3(CCN(C(=O)OC4C5CC6CC(C5)CC4C6)CC3)C2)nc1` (stereo not drawn) [Example 41, 2-Adamantyl 2-(5-cyanopyridin-2-yl)-2,3-dihydro-1H-spiro[isoquinoline-4,4′-piperidine]-1′-carboxylate], below 0.05 µM; to `CC(C(=O)O)C1CC2(CCN(C(=O)NC3C4CC5CC(C4)CC3C5)CC2)c2c(Br)cccc21` (stereo not drawn) [Example 66, 2-(7-Bromo-1′-((2-adamantyl)carbamoyl)-2,3-dihydrospiro[indene-1,4′-piperidine]-3-yl)propanoic acid], below 0.05 µM. For `COc1cc(CNC(=O)C23CC4CC(C2)C(OC(=O)N2CCC5(CC2)CC(CC(=O)O)c2ccccc25)C(C4)C3)cc(OC)c1` (stereo not drawn) [Example 72, 2-(1′-((1-(3,5-Dimethoxybenzylcarbamoyl)-4-adamantyloxy)carbonyl)-2,3-dihydrospiro[indene-1,4′-piperidine]-3-yl)acetic acid], the IC50 was 0.05 to 1 µM.

Turning to `NC(=O)C12CC3CC(C1)C(OC(=O)N1CCC4(CC1)CC(CC(=O)O)c1ccccc14)C(C3)C2` (stereo not drawn) [Example 73, 2-(1′-((1-Carbamoyl-4adamantyloxy)carbonyl)-2,3-dihydrospiro[indene-1,4′-piperidine]-3-yl)acetic acid], the half-inhibitory concentration (IC50) is below 0.05 µM. To `O=C(O)CC1CC2(CCN(C(=O)NC3C4CC5CC3CC(F)(C5)C4)CC2)c2c(Br)cccc21` (stereo not drawn) [Example 74] belongs below 0.05 µM; to `COc1ccc2c(c1)CCNC21CCN(C(=O)NC2C3CC4CC(C3)CC2C4)CC1` (stereo not drawn) [Example 77, N-(2-Adamantyl)-6-methoxy-3,4-dihydro-2H-spiro[isoquinoline-1,4′-piperidine]-1′-carboxamide], below 0.05 µM; to `O=C(NC1C2CC3CC(C2)CC1C3)N1CCC2(CCCc3ccccc32)CC1` (stereo not drawn) [Example 78, N-(2-Adamantyl)-3,4-dihydro-2H-spiro[naphthalene-1,4′-piperidine]-1′-carboxamide], below 0.05 µM. As for `COC(=O)CC1CCC2(CC1)CCN(C(=O)OC1C3CC4CC(C3)CC1C4)CC2` (stereo not drawn) [Example 79, (2-Adamantyl) 9-(2-methoxy-2-oxoethyl)-3-azaspiro[5.5]undecane-3-carboxylate], the IC50 is below 0.05 µM. To `O=C(O)CC1CCC2(CC1)CCN(C(=O)OC1C3CC4CC(C3)CC1C4)CC2` (stereo not drawn) [Example 80, 2-(3-((2-Adamantyl)oxycarbonyl)-3-azaspiro[5.5]undecan-9-yl)acetic acid] belongs 0.05 to 1 µM; to `COC(=O)CC1CCC2(CC1)CCN(C(=O)NC1C3CC4CC(C3)CC1C4)CC2` (stereo not drawn) [Example 81, Methyl 2-(3-((2-adamantyl)carbamoyl)-3-azaspiro[5.5]undecan-9-yl)acetate], below 0.05 µM; to `O=C(O)CC1CCC2(CC1)CCN(C(=O)NC1C3CC4CC(C3)CC1C4)CC2` (stereo not drawn) [Example 82, 2-(3-((2-Adamantyl)carbamoyl)-3-azaspiro[5.5]undecan-9-yl)acetic acid], 0.05 to 1 µM.

In the case of `O=C(NC1C2CC3CC(C2)CC1C3)N1CCC2(CC1)OCc1ccccc12` (stereo not drawn) [Example 83, N-(2-Adamantyl)-3H-spiro[isobenzofuran-1,4′-piperidine]-1′-carboxamide], the IC50 was below 0.05 µM.

In the case of `CC(C)(C)OC(=O)N1CC2(CCN(C(=O)OC3C4CC5CC3CC(C(N)=O)(C5)C4)CC2)c2ccccc21` (stereo not drawn) [Example 85, 1-Tert-butyl 1′-(trans-1-carbamoyl-4-adamantyl)spiro[indoline-3,4′-piperidine]-1,1′-dicarboxylate], the 50% inhibitory concentration (IC50) is below 0.05 µM. To `CN1Cc2ccccc2C12CCN(C(=O)NC1C3CC4CC(C3)CC1C4)CC2` (stereo not drawn) [Example 86, N-(2-Adamantyl)-2-methylspiro[isoindoline-1,4′-piperidine]-1′-carboxamide] belongs below 0.05 µM; to `O=C(NC1C2CC3CC(C2)CC1C3)N1CCC2(CC1)NCc1ccccc12` (stereo not drawn) [Example 87, N-(2-Adamantyl)spiro[isoindoline-1,4′-piperidine]-1′-carboxamide], below 0.05 µM.

Turning to `CN1Cc2cccc(Cl)c2C12CCN(C(=O)NC1C3CC4CC(C3)CC1C4)CC2` (stereo not drawn) [Example 88, 7-Chloro-N-(2-adamantyl)-2-methylspiro[isoindoline-1,4′-piperidine]-1′-carboxamide], the half-inhibitory concentration (IC50) was below 0.05 µM. Then `O=C(O)CC1CC2(CCN(C(=O)OC3C4CC5CC3CC(C(=O)NCc3ccccc3)(C5)C4)CC2)c2ccccc21` (stereo not drawn) [Example 89, 2-(1′-((1-(Benzylcarbamoyl)-4-adamantyloxy)carbonyl)-2,3-dihydrospiro[indene-1,4′-piperidine]-3-yl)acetic acid], with 0.05 to 1 µM.
